Assay results: patent publication US8569336B2, “Compounds for the treatment of inflammatory disorders” (priority 2008, dated 2013)
Where two headings read alike, the source gives them in different places.

How the values were obtained:
[1] = system: TNF-α production from human whole blood; experiment: Inhibition of TNF-α production from human whole blood (hWBA), LPS stimulated, ELISA; assay type: cell-based; settings: Homo sapiens, TNF-α by ELISA, read-out: hWBA (IC50)
[2] = Area under the curve determinations of plasma levels in rats (rrAUC), oral 10 mg/kg; assay type: in vivo; settings: for AUC: rat, read-out: RR AUC (rapid rat AUC, rrAUC)
[3] = target: T1, purified catalytic domain of recombinant human TACE (rhTACEc) (Homo sapiens, UniProt P78536, N452Q/S266A); experiment: TACE kinetic assay: cleavage of internally quenched peptide substrate TNF-FRET 2 (Ki); assay type: biochemical; settings: TNF-FRET 2 substrate
T1 construct: 6xHis (C); made in house; host or cells: baculovirus/Hi5 insect cells
T1 sequence (P78536 215-477 S266A/N452Q): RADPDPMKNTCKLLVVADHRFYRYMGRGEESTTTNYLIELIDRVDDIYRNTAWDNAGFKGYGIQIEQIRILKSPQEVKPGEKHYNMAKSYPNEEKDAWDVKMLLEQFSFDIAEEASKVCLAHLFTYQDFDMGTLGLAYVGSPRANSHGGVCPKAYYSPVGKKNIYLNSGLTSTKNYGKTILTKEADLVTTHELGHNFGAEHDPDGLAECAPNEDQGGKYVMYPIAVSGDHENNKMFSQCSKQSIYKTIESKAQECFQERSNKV

[4] = LPS-stimulated human whole blood
[5] = 3.5 h, human whole blood diluted 1:1, LPS stimulated, 3.5 h

COc1ccc2c(c1F)C(=O)N(C[C@@]1(c3cc4nc(N5C[C@@H](O)CC5=O)ccc4o3)NC(=O)NC1=O)C2 [Compound 1501]
IC50 [1, 4]: 131 nM | AUC ([2]; plasma 0.5-6 h): 0.667 µM·h | Ki ([3]; read-out: Ki): 0.5 nM

COc1ccc2c(c1F)C(=O)N(C[C@@]1(c3cc4nc(N5C(=O)CCC5C)ccc4o3)NC(=O)NC1=O)C2 (stereo partly drawn) [Compound 1510]
IC50 [1, 4]: 263 nM | AUC ([2]; plasma 0.5-6 h): 5.19 µM·h | Ki ([3]; read-out: Ki): 0.4 nM

COc1ccc2c(c1F)C(=O)N(C[C@@]1(c3cc4nc(N5C[C@H](O)CC5=O)ccc4o3)NC(=O)NC1=O)C2 [Compound 1511]
IC50 [1, 4]: 93.3 nM | AUC ([2]; plasma 0.5-6 h): 4.01 µM·h | Ki ([3]; read-out: Ki): 0.4 nM

COc1ccc2c(c1)C(=O)N(C[C@@]1(c3cc4nc(N5CCCCC5=O)ccc4o3)NC(=O)NC1=O)C2 [Compound 1512]
IC50 [1, 4]: 1550 nM | AUC ([2]; plasma 0.5-6 h): 0.303 µM·h | Ki ([3]; read-out: Ki): 1.3 nM

COc1ccc2c(c1)C(=O)N(C[C@@]1(c3cc4nc(N5CCC[C@H]5CO)ccc4o3)NC(=O)NC1=O)C2 [Compound 1513]
IC50 [1, 4]: 526 nM | AUC ([2]; plasma 0.5-6 h): 0.524 µM·h | Ki ([3]; read-out: Ki): 0.7 nM

COc1ccc2c(c1)C(=O)N(C[C@@]1(c3cc4nc(N5CCCC(C(N)=O)C5)ccc4o3)NC(=O)NC1=O)C2 (stereo partly drawn) [Compound 1515]
IC50 [1, 4]: 245 nM | AUC ([2]; plasma 0.5-6 h): 0.145 µM·h | Ki ([3]; read-out: Ki): 0.7 nM

CCOC(=O)C1CCCN(c2ccc3oc([C@]4(CN5Cc6ccc(OC)cc6C5=O)NC(=O)NC4=O)cc3n2)C1 (stereo partly drawn) [Compound 1516]
IC50 [1, 4]: 1740 nM | AUC ([2]; plasma 0.5-6 h): 0.041 µM·h | Ki ([3]; read-out: Ki): 0.5 nM

COc1ccc2c(c1F)C(=O)N(C[C@@]1(c3cc4nc(N5CCC5=O)ccc4o3)NC(=O)NC1=O)C2 [Compound 1522]
IC50 [1, 4]: 211 nM | AUC ([2]; plasma 0.5-6 h): 4.63 µM·h | Ki ([3]; read-out: Ki): 0.3 nM

COc1ccc2c(c1F)C(=O)N(C[C@@]1(c3cc4nc(-n5ccnc5)ccc4o3)NC(=O)NC1=O)C2 [Compound 1523]
IC50 [1, 4]: 289 nM | AUC ([2]; plasma 0.5-6 h): 4.29 µM·h | Ki ([3]; read-out: Ki): 0.6 nM

COc1ccc2c(c1F)C(=O)N(C[C@@]1(c3cc4nc(-n5cccn5)ccc4o3)NC(=O)NC1=O)C2 [Compound 1524]
IC50 [1, 4]: 557 nM | AUC ([2]; plasma 0.5-6 h): 8 µM·h | Ki ([3]; read-out: Ki): 0.3 nM

COc1ccc2c(c1)C(=O)N(C[C@@]1(c3cc4nc(-c5ccc(C#N)nc5)ccc4o3)NC(=O)NC1=O)C2 [Compound 1530]
IC50 [1, 4]: 1610 nM | RR AUC (rapid rat AUC, rrAUC) ([2]; plasma 0.5-6 h): 536 nM·h | Ki ([3]; read-out: Ki): 0.7 nM

CCN1CCN(c2ccc3oc([C@]4(CN5Cc6ccc(OC)c(F)c6C5=O)NC(=O)NC4=O)cc3n2)CC1 [Compound 1705]
IC50 [1, 4]: 137 nM | AUC ([2]; plasma 0.5-6 h): 1.2 µM·h | Ki ([3]; read-out: Ki): 0.82 nM

COc1ccc2c(c1F)C(=O)N(C[C@@]1(c3cc4nc(N5CCN(C(C)C)CC5)ccc4o3)NC(=O)NC1=O)C2 [Compound 1706]
IC50 [1, 4]: 224 nM | AUC ([2]; plasma 0.5-6 h): 0.273 µM·h | Ki ([3]; read-out: Ki): 0.5 nM

CCN1CCN(c2ccc3oc([C@]4(CN5Cc6ccc(OC)c(F)c6C5=O)NC(=O)NC4=O)cc3n2)CC1=O [Compound 1707]
IC50 [1, 4]: 235 nM | AUC ([2]; plasma 0.5-6 h): 0.65 µM·h | Ki ([3]; read-out: Ki): 0.5 nM

CCN1CCN(c2nc3cc([C@]4(CN5Cc6ccc(OC)c(F)c6C5=O)NC(=O)NC4=O)oc3cc2F)CC1 [Compound 1709]
IC50 [1, 4]: 131 nM | AUC ([2]; plasma 0.5-6 h): 0.623 µM·h | Ki ([3]; read-out: Ki): 0.7 nM

COc1ccc2c(c1F)C(=O)N(C[C@@]1(c3cc4nc(N5CCN(C6CC6)CC5)ccc4o3)NC(=O)NC1=O)C2 [Compound 1711]
IC50 [1, 4]: 113 nM | AUC ([2]; plasma 0.5-6 h): 5.09 µM·h | Ki ([3]; read-out: Ki): 0.5 nM

COc1ccc2c(c1F)C(=O)N(C[C@@]1(c3cc4nc(N5CCC(OC)(OC)CC5)ccc4o3)NC(=O)NC1=O)C2 [Compound 1715]
IC50 [1, 4]: 480 nM | AUC ([2]; plasma 0.5-6 h): 0.199 µM·h | Ki ([3]; read-out: Ki): 2.79 nM

COc1ccc2c(c1F)C(=O)N(C[C@@]1(c3cc4nc(-c5ccc(N)nc5)ccc4o3)NC(=O)NC1=O)C2 [Compound 1716]
IC50 [1, 4]: 132 nM | AUC ([2]; plasma 0.5-6 h): 0.393 µM·h | Ki ([3]; read-out: Ki): 0.48 nM

COc1ccc2c(c1F)C(=O)N(C[C@@]1(c3cc4nc(Nc5cncc(F)c5)ccc4o3)NC(=O)NC1=O)C2 [Compound 1733]
IC50 [1, 4]: 454 nM | AUC ([2]; plasma 0.5-6 h): 0.904 µM·h | Ki ([3]; read-out: Ki): 0.71 nM

COc1ccc2c(c1F)C(=O)N(C[C@@]1(c3cc4nc(Nc5ccc(-c6cn[nH]c6)cn5)ccc4o3)NC(=O)NC1=O)C2 [Compound 1734]
IC50 [1, 4]: 289 nM | AUC ([2]; plasma 0.5-6 h): 0.068 µM·h | Ki ([3]; read-out: Ki): 1.92 nM

COc1ccc2c(c1F)C(=O)N(C[C@@]1(c3cc4ncc(C(N)=O)cc4o3)NC(=O)NC1=O)C2 [Compound 1908]
IC50 [1, 4]: 136 nM | AUC ([2]; plasma 0.5-6 h): 0.094 µM·h | Ki ([3]; read-out: Ki): 0.42 nM

COc1ccc2c(c1F)C(=O)N(C[C@@]1(c3cc4ncc(C(=O)NC5CC5)cc4o3)NC(=O)NC1=O)C2 [Compound 1909]
IC50 [1, 4]: 585 nM | AUC ([2]; plasma 0.5-6 h): 0.066 µM·h | Ki ([3]; read-out: Ki): 1.15 nM

COc1ccc2c(c1F)C(=O)N(C[C@@]1(c3cc4nc(N)ccc4o3)NC(=O)NC1=O)C2 [Compound 1910]
IC50 [1, 4]: 153 nM | AUC ([2]; plasma 0.5-6 h): 0.351 µM·h | Ki ([3]; read-out: Ki): 0.34 nM

COc1ccc2c(c1F)C(=O)N(C[C@@]1(c3cc4nc(C)c(N5CCC5=O)cc4o3)NC(=O)NC1=O)C2 [Compound 1922]
IC50 [1, 4]: 281 nM | AUC ([2]; plasma 0.5-6 h): 0.088 µM·h | Ki ([3]; read-out: Ki): 1.25 nM

COc1ccc2c(c1)C(=O)N(C[C@@]1(c3cc4nc(C(N)=O)ccc4o3)NC(=O)NC1=O)C2 [Compound 1924]
IC50 [1, 4]: 200 nM | AUC ([2]; plasma 0.5-6 h): 0.113 µM·h | Ki ([3]; read-out: Ki): 0.55 nM

CNC(=O)c1ccc2oc([C@]3(CN4Cc5ccc(OC)cc5C4=O)NC(=O)NC3=O)cc2n1 [Compound 1925]
IC50 [1, 4]: 280 nM | RR AUC (rapid rat AUC, rrAUC) ([2]; plasma 0.5-6 h): 1070 nM·h | Ki ([3]; read-out: Ki): 0.86 nM

COc1ccc2c(c1)C(=O)N(C[C@@]1(c3cc4nc(N)ccc4o3)NC(=O)NC1=O)C2 [Compound 1936]
IC50 [1, 4]: 187 nM | AUC ([2]; plasma 0.5-6 h): 0.424 µM·h | Ki ([3]; Ki): 0.51 nM

COc1ccc2c(c1)C(=O)N(C[C@@]1(c3cc4nc(NS(=O)(=O)C5CC5)ccc4o3)NC(=O)NC1=O)C2 [Compound 1938]
IC50 [1, 4]: 518 nM | AUC ([2]; plasma 0.5-6 h): 0.015 µM·h | Ki ([3]; read-out: Ki): 0.58 nM

COc1ccc2c(c1)C(=O)N(C[C@@]1(c3cc4nc(-c5cn[nH]c5)ccc4o3)NC(=O)NC1=O)C2 [Compound 2100]
IC50 [1, 5]: 99.4 nM | AUC ([2]; plasma 0.5-6 h post-dosing): 0.104 µM·h | Ki ([3]; read-out: Ki): 0.197 nM

COc1ccc2c(c1)C(=O)N(C[C@@]1(c3cc4nc(-c5ccc(N)nc5)ccc4o3)NC(=O)NC1=O)C2 [Compound 2102]
IC50 [1, 5]: 164 nM | AUC ([2]; plasma 0.5-6 h post-dosing): 0.092 µM·h | Ki ([3]; Ki): 0.328 nM

COc1ccc2c(c1)C(=O)N(C[C@@]1(c3cc4nc(-c5cnn(C)c5)ccc4o3)NC(=O)NC1=O)C2 [Compound 2104]
IC50 [1, 5]: 285 nM | AUC ([2]; plasma 0.5-6 h post-dosing): 0.369 µM·h | Ki ([3]; Ki): 0.191 nM

COc1ccc2c(c1)C(=O)N(C[C@@]1(c3cc4nc(-c5c(C)nn(C)c5C)ccc4o3)NC(=O)NC1=O)C2 [Compound 2105]
IC50 [1, 5]: 216 nM | AUC ([2]; plasma 0.5-6 h post-dosing): 7.54 µM·h | Ki ([3]; read-out: Ki): 0.155 nM

COc1ccc2c(c1)C(=O)N(C[C@@]1(c3cc4nc(-c5cccnc5)ccc4o3)NC(=O)NC1=O)C2 [Compound 2107]
IC50 [1, 5]: 171 nM | AUC ([2]; plasma 0.5-6 h post-dosing): 3.08 µM·h | Ki ([3]; read-out: Ki): 0.902 nM

COc1ccc2c(c1)C(=O)N(C[C@@]1(c3cc4nc(N5CCN(C)CC5)ccc4o3)NC(=O)NC1=O)C2 [Compound 2108]
IC50 [1, 5]: 150 nM | AUC ([2]; plasma 0.5-6 h post-dosing): 0.43 µM·h | Ki ([3]; Ki): 0.613 nM

COc1ccc2c(c1)C(=O)N(C[C@@]1(c3cc4nc(-c5ccncc5)ccc4o3)NC(=O)NC1=O)C2 [Compound 2110]
IC50 [1, 5]: 351 nM | AUC ([2]; plasma 0.5-6 h post-dosing): 10.5 µM·h | Ki ([3]; read-out: Ki): 0.62 nM

COc1ccc2c(c1)C(=O)N(C[C@@]1(c3cc4nc(Nc5c(C)nn(C)c5C)ccc4o3)NC(=O)NC1=O)C2 [Compound 2112]
IC50 [1, 5]: 533 nM | AUC ([2]; plasma 0.5-6 h post-dosing): 0.019 µM·h | Ki ([3]; read-out: Ki): 0.385 nM

COc1ccc2c(c1)C(=O)N(C[C@@]1(c3cc4nc(-c5cnn(CC(C)C)c5)ccc4o3)NC(=O)NC1=O)C2 [Compound 2115]
IC50 [1, 5]: 968 nM | AUC ([2]; plasma 0.5-6 h post-dosing): 0.349 µM·h | Ki ([3]; read-out: Ki): 0.193 nM

CCCn1cc(-c2ccc3oc([C@]4(CN5Cc6ccc(OC)cc6C5=O)NC(=O)NC4=O)cc3n2)cn1 [Compound 2117]
IC50 [1, 5]: 1010 nM | AUC ([2]; plasma 0.5-6 h post-dosing): 0.32 µM·h | Ki ([3]; read-out: Ki): 0.408 nM

COc1ccc2c(c1)C(=O)N(C[C@@]1(c3cc4nc(-n5nc(N)cc5C)ccc4o3)NC(=O)NC1=O)C2 [Compound 2118]
IC50 [1, 5]: 3790 nM | AUC ([2]; plasma 0.5-6 h post-dosing): 0.527 µM·h | Ki ([3]; Ki): 0.6 nM

COc1ccc2c(c1F)C(=O)N(C[C@@]1(c3cc4nc(-c5c(C)nn(C)c5C)ccc4o3)NC(=O)NC1=O)C2 [Compound 2119]
IC50 [1, 5]: 243 nM | AUC ([2]; plasma 0.5-6 h post-dosing): 7 µM·h | Ki ([3]; read-out: Ki): 0.39 nM
